{
  "source": "paper PMC11992225",
  "about": "“Antibacterial compounds against non-growing and intracellular bacteria” (npj Antimicrobials and Resistance, 2025)",
  "key": {"non-growing UPEC CFT073": {"test_system": "non-growing UPEC CFT073", "assay": "Dilution-regrowth assay (screen, hit validation, dose-response) on stationary-phase UPEC", "format": "cell-based, Escherichia coli", "conditions": "for EC50: Escherichia coli", "procedure,_shortened": "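Regrowth (OD600 after 6 h, 37 °C) of diluted non-growing CFT073, following 24 h compound treatment of 24 h stationary cultures, defines activity relative to untreated control. Screen at 20 µM, validation at 20, 10, 5 µM (duplicates), dose–response in three biological replicates fitted by five-parameter logistic.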"}, "S. aureus DSM2569": {"test_system": "S. aureus DSM2569", "assay": "MIC, standard microdilution assay, growing S. aureus", "format": "cell-based, Staphylococcus aureus", "conditions": "S. aureus, CA-MHB pH 7.4, read-out: MIC (μM) CA-MHB", "procedure,_shortened": "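Each strain was exposed to serially diluted compound in broth, in triplicate. The media were TSB for Shigella; CA-MHB at pH 7.4 (HEPES 40 mM) for S. aureus, P. aeruginosa and UPEC; and, for UPEC only, low-pH LPM (pH 5.5, 30 mM MES).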"}, "[1]": {"conditions": "E. coli, pH 7.4, regrowth delay of non-growing bacteria, 1:4 CA-MHB, 24 h treatment, OD600 6 h after 2500-fold dilution, read-out: EC50"}, "[2]": {"conditions": "E. coli, LPM pH 5.5, regrowth delay of non-growing bacteria, 24 h treatment, OD600 6 h after 2500-fold dilution, read-out: EC50"}},
  "note": "Read-outs that look alike come from different tables or passages of the source.",
  "data": [
    {"molecule": "CN1C[C@@H]2C[C@H]1CN2c1cc2c(cc1F)c(=O)c(C(=O)O)cn2C1CC1", "note": "[Danofloxacin]", "values": [
      {"measurement": "EC50", "setting": "non-growing UPEC CFT073; [1]", "result": 2160, "unit": "nM"},
      {"measurement": "MIC", "setting": "S. aureus DSM2569; Staphylococcus aureus, DSM2569", "result": 0.5, "unit": "µM"}
    ]},
    {"molecule": "CCN1CCN(c2cc3c(cc2F)c(=O)c(C(=O)O)cn3C2CC2)CC1", "note": "[Enrofloxacin]", "values": [
      {"measurement": "EC50", "setting": "non-growing UPEC CFT073; [2]", "result": 21500, "unit": "nM"},
      {"measurement": "EC50", "setting": "non-growing UPEC CFT073; [1]", "result": 5170, "unit": "nM"},
      {"measurement": "MIC", "setting": "S. aureus DSM2569; Staphylococcus aureus, DSM2569", "result": 0.5, "unit": "µM"}
    ]},
    {"molecule": "C[C@H]1NCc2cc(-c3ccc4c(=O)c(C(=O)O)cn(C5CC5)c4c3OC(F)F)ccc21", "note": "[Garenoxacin]", "values": [
      {"measurement": "EC50", "setting": "non-growing UPEC CFT073; [1]", "result": 2190, "unit": "nM"},
      {"measurement": "MIC", "setting": "S. aureus DSM2569; Staphylococcus aureus, DSM2569", "result": 0.125, "unit": "µM"}
    ]},
    {"molecule": "CO[C@H]1/C=C/O[C@@]2(C)Oc3c(C)c(O)c4c(O)c(c(/C=N/N5CCN(C)CC5)c(O)c4c3C2=O)NC(=O)/C(C)=C\\C=C\\[C@H](C)[C@H](O)[C@@H](C)[C@@H](O)[C@@H](C)[C@H](OC(C)=O)[C@@H]1C", "note": "[Rifampicin]", "values": [
      {"measurement": "EC50", "setting": "non-growing UPEC CFT073; [2]", "result": 950, "unit": "nM"},
      {"measurement": "EC50", "setting": "non-growing UPEC CFT073; LPM pH 5.5 (red curve), medium assigned by comparison with Dataset 1, read-out: EC50 (regrowth inhibition curve, Fig. S4)", "result": 970, "unit": "nM"},
      {"measurement": "MIC", "setting": "S. aureus DSM2569; Staphylococcus aureus, DSM2569", "result": 0.0125, "unit": "µM"}
    ]},
    {"molecule": "CC[C@H]1OC(=O)C[C@@H](O)[C@H](C)[C@@H](O[C@@H]2O[C@H](C)C[C@H](N(C)C)[C@H]2O)[C@@H](CC=O)C[C@@H](C)C(=O)/C=C/[C@]2(C)O[C@H]2[C@@H]1C", "note": "[Rosamicin]", "values": [
      {"measurement": "EC50", "setting": "non-growing UPEC CFT073; [1]", "result": 858, "unit": "nM"},
      {"measurement": "MIC", "setting": "S. aureus DSM2569; Staphylococcus aureus, DSM2569", "result": 2, "unit": "µM"}
    ]},
    {"molecule": "Plicamycin", "values": [
      {"measurement": "Regrowth, OD600 at 6h or 8h after dilution into drug-free medium (average)", "setting": "non-growing UPEC CFT073; E. coli in 1:4 CA-MHB (pH 7.4), drug concentration 0.25", "result": 0.612},
      {"measurement": "Regrowth, OD600 at 6h or 8h after dilution into drug-free medium (average)", "setting": "non-growing UPEC CFT073; E. coli in 1:4 CA-MHB (pH 7.4), drug concentration 0.5", "result": 0.607},
      {"measurement": "Regrowth, OD600 at 6h or 8h after dilution into drug-free medium (average)", "setting": "non-growing UPEC CFT073; E. coli in 1:4 CA-MHB (pH 7.4), drug concentration 1", "result": 0.618},
      {"measurement": "Regrowth, OD600 at 6h or 8h after dilution into drug-free medium (average)", "setting": "non-growing UPEC CFT073; E. coli in 1:4 CA-MHB (pH 7.4), drug concentration 2.5", "result": 0.623},
      {"measurement": "Regrowth, OD600 at 6h or 8h after dilution into drug-free medium (average)", "setting": "non-growing UPEC CFT073; E. coli in 1:4 CA-MHB (pH 7.4), drug concentration 5", "result": 0.619},
      {"measurement": "Regrowth, OD600 at 6h or 8h after dilution into drug-free medium (average)", "setting": "non-growing UPEC CFT073; E. coli in 1:4 CA-MHB (pH 7.4), drug concentration 10", "result": 0.615},
      {"measurement": "Regrowth, OD600 at 6h or 8h after dilution into drug-free medium (average)", "setting": "non-growing UPEC CFT073; E. coli in 1:4 CA-MHB (pH 7.4), drug concentration 30", "result": 0.623},
      {"measurement": "Regrowth, OD600 at 6h or 8h after dilution into drug-free medium (average)", "setting": "non-growing UPEC CFT073; E. coli in LPM (pH 5.5), drug concentration 0.25", "result": 0.574},
      {"measurement": "Regrowth, OD600 at 6h or 8h after dilution into drug-free medium (average)", "setting": "non-growing UPEC CFT073; E. coli in LPM (pH 5.5), drug concentration 0.5", "result": 0.571},
      {"measurement": "Regrowth, OD600 at 6h or 8h after dilution into drug-free medium (average)", "setting": "non-growing UPEC CFT073; E. coli in LPM (pH 5.5), drug concentration 1", "result": 0.572},
      {"measurement": "Regrowth, OD600 at 6h or 8h after dilution into drug-free medium (average)", "setting": "non-growing UPEC CFT073; E. coli in LPM (pH 5.5), drug concentration 2.5", "result": 0.561},
      {"measurement": "Regrowth, OD600 at 6h or 8h after dilution into drug-free medium (average)", "setting": "non-growing UPEC CFT073; E. coli in LPM (pH 5.5), drug concentration 5", "result": 0.562},
      {"measurement": "Regrowth, OD600 at 6h or 8h after dilution into drug-free medium (average)", "setting": "non-growing UPEC CFT073; E. coli in LPM (pH 5.5), drug concentration 10", "result": 0.546},
      {"measurement": "Regrowth, OD600 at 6h or 8h after dilution into drug-free medium (average)", "setting": "non-growing UPEC CFT073; E. coli in LPM (pH 5.5), drug concentration 30", "result": 0.390},
      {"measurement": "activity against non-growing UPEC in LPM (pH 5.5) compared to 1:4 CA-MHB (pH 7.4)", "setting": "non-growing UPEC CFT073; regrowth delay and killing, Figs. 2 and 3", "result": "potentiated by the low pH"},
      {"measurement": "MIC", "setting": "S. aureus DSM2569", "result": 0.25, "unit": "µM"}
    ]}
  ]
}
